Measurements taken from patent US20230143932A1, “PIN6 PROTEINS FOR THE FORMATION OF NODULE-LIKE STRUCTURES” (University of Freiburg, priority 2021, published 2023).

What was measured:
Assay in all cases: Root organogenesis response to transient auxin treatment (pseudonodule count)
Format in all cases: in vivo
[1] = system: Medicago truncatula cultivar Jester; conditions: 50 μM for 1 hour, counted 7 days after treatment
Procedure: (§1) In order to investigate the potential impact of auxin and cytokinin treatment on root organogenesis, seeds of the Medicago truncatula cultivar Jester, the Lotus japonicus ecotype Gifu, and the Hordeum vulgare cultivar Golden Promise were sterilized, and then seedlings were grown on FP media (without Nitrogen and Phosphorus) for 3, 7, and 2 days, respectively. Grown plants were transformed to FP media with either control treatment, 50 μM of 2,4-Dichlorophenoxyacetic acid (synthetic auxin), 100 nM of 6-Benzylaminopurine (synthetic cytokinin) or both of the hormones for 1 hour before moving to FP media. FIG. 1A-1C show the number of pseudonodules/Arrested Lateral roots (ALR) counted 7 days after control treatment, treatment with 2,4-Dichlorophenoxyacetic acid (2,4-D), 6-Benzylaminopurine (BAP), or both.

[2] = system: Hordeum vulgare cultivar Golden Promise; conditions: Hordeum vulgare (barley) roots, 50 μM for 1 hour, counted 7 days after treatment
Procedure: as §1

[3] = system: Lotus japonicus ecotype Gifu; conditions: 50 μM for 1 hour, counted 7 days after treatment
Procedure: as §1

O=C(O)COc1ccc(Cl)cc1Cl [2,4-Dichlorophenoxyacetic acid]
pseudonodule formation compared with control plants [1]: increased pseudonodule formation
pseudonodule formation compared with control plants [2]: increased pseudonodule formation
pseudonodule formation compared with control plants ([2]; listed as auxin): formation of pseudonodules
pseudonodule formation compared with control plants [3]: increased pseudonodule formation
